Experimental data: US6747033B2, “Fungicidal triazolopyrimid-7-ylideneamines” (BASF Aktiengesellschaft, priority 2000, dated 2004)
Where two headings read alike, the source gives them in different places.

Legend:
Venturia inaequalis = experiment: In vivo fungicidal activity, Apple Scab (AS); note: ranges in brackets are in %
Plasmopara viticola = experiment: In vivo fungicidal activity, Grape downy mildew (GDM); note: ranges in brackets are in %
Botrytis cinera = experiment: In vivo fungicidal activity, Pepper Botrytis (PB); note: ranges in brackets are in %
[1] = system: Pyricularia grisea f. sp. oryzae; type: in vivo; details: Rice Blast
Cercospora beticola = experiment: In vivo fungicidal activity, Sugar Beet Cercospora (SBC); note: ranges in brackets are in %
Alternara solani = experiment: In vivo fungicidal activity, Tomato early blight (TEB); note: ranges in brackets are in %
Blumeria graminis = experiment: In vivo fungicidal activity, Wheat powdery mildew (WPM); note: ranges in brackets are in %
[2] = system: Pseudocercosporella herpotrichoides; experiment: In vitro fungicidal activity, Cereal eye spot (PSDCHE); type: cell-based; design: key: 0: None; 3: slight; 5: moderate; 7: severe; 9: complete; details: 3-7 days of incubation
Description: (§1) Test compounds are dissolved in acetone to give concentrations of 25, 10 and 1 ppm and are added to individual cell Walls (24-cell-well plates, Corning), which were previously filled with a suspension of ground plates, Corning), which were previously filled with a suspension of ground fungal mycelium in a chemically defined growth medium. After 3-7 days of incubation, inhibition of […] growth is recorded using the following scale: The data obtained are shown in Table II. [table]

Pythium ultimum = experiment: In vitro fungicidal activity, Fruit rot (PYTHUL); type: cell-based; design: key: 0: None; 3: slight; 5: moderate; 7: severe; 9: complete; details: 3-7 days of incubation
Description: as §1

Rhizoctonia solani = experiment: In vitro fungicidal activity, Rice sheath blight (RHIZSO); type: cell-based; design: key: 0: None; 3: slight; 5: moderate; 7: severe; 9: complete; details: 3-7 days of incubation
Description: as §1

Cn1c(Cl)c(-c2c(F)cc(F)cc2F)c(=NCC(F)(F)F)n2ncnc12 [Example 1A, N-(5-chloro-4-methyl-6-(2,4,6-trifluorophenyl)-4H[1,2,4]triazolo[1,5-α]pyrimidin-7-ylidene]-N-(2,2,2-trifluoroethyl)-amine]
8 (96-99): SBC disease control rating (Cercospora beticola; 200 ppm spray) | WPM disease control rating (Blumeria graminis; 200 ppm spray)
9 (100): AS disease control rating (Venturia inaequalis; 200 ppm spray)
5: RHIZSO inhibition of mycelial growth rating (Rhizoctonia solani; 1 ppm)
0 (0): AS disease control rating (Venturia inaequalis; 12.5 ppm spray) | PB disease control rating (Botrytis cinera; 12.5 ppm spray) | PB disease control rating (Botrytis cinera; 200 ppm spray) | RB disease control rating ([1]; 12.5 ppm spray) | RB disease control rating ([1]; 50 ppm spray) | SBC disease control rating (Cercospora beticola; 12.5 ppm spray) | TEB disease control rating (Alternara solani; 12.5 ppm spray) | TEB disease control rating (Alternara solani; 50 ppm spray) | WPM disease control rating (Blumeria graminis; 12.5 ppm spray)
0: PSDCH inhibition of mycelial growth rating ([2]; 1 ppm) | PSDCH inhibition of mycelial growth rating ([2]; 10 ppm) | PSDCH inhibition of mycelial growth rating ([2]; 25 ppm) | PYTHU inhibition of mycelial growth rating (Pythium ultimum; 1 ppm) | PYTHU inhibition of mycelial growth rating (Pythium ultimum; 10 ppm) | PYTHU inhibition of mycelial growth rating (Pythium ultimum; 25 ppm)
6 (75-89): AS disease control rating (Venturia inaequalis; 50 ppm spray) | GDM disease control rating (Plasmopara viticola; 50 ppm spray) | RB disease control rating ([1]; 200 ppm spray) | SBC disease control rating (Cercospora beticola; 50 ppm spray)
7 (90-95): WPM disease control rating (Blumeria graminis; 50 ppm spray)
7: RHIZSO inhibition of mycelial growth rating (Rhizoctonia solani; 10 ppm) | RHIZSO inhibition of mycelial growth rating (Rhizoctonia solani; 25 ppm)
3 (30-44): TEB disease control rating (Alternara solani; 200 ppm spray)
5 (60-74): GDM disease control rating (Plasmopara viticola; 12.5 ppm spray) | PB disease control rating (Botrytis cinera; 50 ppm spray)
4 (45-59): GDM disease control rating (Plasmopara viticola; 200 ppm spray)

CCCn1c(Cl)c(-c2c(F)cc(F)cc2F)c(=NC(C)C(F)(F)F)n2ncnc12 (stereo not drawn) [Example 2]
0 (0): AS disease control rating (Venturia inaequalis; 12.5 ppm spray) | AS disease control rating (Venturia inaequalis; 50 ppm spray) | RB disease control rating ([1]; 12.5 ppm spray) | RB disease control rating ([1]; 50 ppm spray) | RB disease control rating ([1]; 200 ppm spray) | SBC disease control rating (Cercospora beticola; 12.5 ppm spray) | SBC disease control rating (Cercospora beticola; 50 ppm spray) | TEB disease control rating (Alternara solani; 12.5 ppm spray) | TEB disease control rating (Alternara solani; 50 ppm spray) | TEB disease control rating (Alternara solani; 200 ppm spray) | WPM disease control rating (Blumeria graminis; 12.5 ppm spray) | WPM disease control rating (Blumeria graminis; 50 ppm spray) | WPM disease control rating (Blumeria graminis; 200 ppm spray)
5 (60-74): AS disease control rating (Venturia inaequalis; 200 ppm spray)
2 (15-29): GDM disease control rating (Plasmopara viticola; 50 ppm spray)
1 (1-14): GDM disease control rating (Plasmopara viticola; 200 ppm spray) | PB disease control rating (Botrytis cinera; 12.5 ppm spray) | PB disease control rating (Botrytis cinera; 50 ppm spray) | PB disease control rating (Botrytis cinera; 200 ppm spray)
4 (45-59): GDM disease control rating (Plasmopara viticola; 12.5 ppm spray)
3 (30-44): SBC disease control rating (Cercospora beticola; 200 ppm spray)

CCn1c(Cl)c(-c2c(F)cc(F)cc2F)c(=NC(C)C(F)(F)F)n2ncnc12 (stereo not drawn) [Example 3]
4 (45-59): GDM disease control rating (Plasmopara viticola; 50 ppm spray) | GDM disease control rating (Plasmopara viticola; 200 ppm spray)
3: RHIZSO inhibition of mycelial growth rating (Rhizoctonia solani; 1 ppm)
5: RHIZSO inhibition of mycelial growth rating (Rhizoctonia solani; 10 ppm) | RHIZSO inhibition of mycelial growth rating (Rhizoctonia solani; 25 ppm)
1: PSDCH inhibition of mycelial growth rating ([2]; 10 ppm) | PSDCH inhibition of mycelial growth rating ([2]; 25 ppm)
6 (75-89): AS disease control rating (Venturia inaequalis; 200 ppm spray)
0 (0): AS disease control rating (Venturia inaequalis; 12.5 ppm spray) | AS disease control rating (Venturia inaequalis; 50 ppm spray) | GDM disease control rating (Plasmopara viticola; 12.5 ppm spray) | PB disease control rating (Botrytis cinera; 50 ppm spray) | PB disease control rating (Botrytis cinera; 200 ppm spray) | RB disease control rating ([1]; 12.5 ppm spray) | RB disease control rating ([1]; 50 ppm spray) | SBC disease control rating (Cercospora beticola; 12.5 ppm spray) | SBC disease control rating (Cercospora beticola; 50 ppm spray) | SBC disease control rating (Cercospora beticola; 200 ppm spray) | TEB disease control rating (Alternara solani; 200 ppm spray) | WPM disease control rating (Blumeria graminis; 12.5 ppm spray) | WPM disease control rating (Blumeria graminis; 50 ppm spray)
0: PSDCH inhibition of mycelial growth rating ([2]; 1 ppm) | PYTHU inhibition of mycelial growth rating (Pythium ultimum; 1 ppm) | PYTHU inhibition of mycelial growth rating (Pythium ultimum; 10 ppm) | PYTHU inhibition of mycelial growth rating (Pythium ultimum; 25 ppm)
3 (30-44): TEB disease control rating (Alternara solani; 12.5 ppm spray) | TEB disease control rating (Alternara solani; 50 ppm spray) | WPM disease control rating (Blumeria graminis; 200 ppm spray)
2 (15-29): PB disease control rating (Botrytis cinera; 12.5 ppm spray)
5 (60-74): RB disease control rating ([1]; 200 ppm spray)

CCCn1c(Cl)c(-c2c(F)cc(OC)cc2F)c(=NC(C)C(F)(F)F)n2ncnc12 (stereo not drawn) [Example 4]
0 (0): AS disease control rating (Venturia inaequalis; 3.1 ppm spray) | AS disease control rating (Venturia inaequalis; 12.5 ppm spray) | AS disease control rating (Venturia inaequalis; 50 ppm spray) | GDM disease control rating (Plasmopara viticola; 12.5 ppm spray) | GDM disease control rating (Plasmopara viticola; 50 ppm spray) | PB disease control rating (Botrytis cinera; 3.1 ppm spray) | PB disease control rating (Botrytis cinera; 12.5 ppm spray) | PB disease control rating (Botrytis cinera; 50 ppm spray) | RB disease control rating ([1]; 3.1 ppm spray) | RB disease control rating ([1]; 12.5 ppm spray) | RB disease control rating ([1]; 50 ppm spray) | SBC disease control rating (Cercospora beticola; 3.1 ppm spray) | SBC disease control rating (Cercospora beticola; 12.5 ppm spray) | SBC disease control rating (Cercospora beticola; 50 ppm spray) | TEB disease control rating (Alternara solani; 12.5 ppm spray) | TEB disease control rating (Alternara solani; 50 ppm spray) | WPM disease control rating (Blumeria graminis; 3.1 ppm spray) | WPM disease control rating (Blumeria graminis; 12.5 ppm spray) | WPM disease control rating (Blumeria graminis; 50 ppm spray)
3 (30-44): TEB disease control rating (Alternara solani; 3.1 ppm spray)
4 (45-59): GDM disease control rating (Plasmopara viticola; 3.1 ppm spray)

CCCOc1cc(F)c(-c2c(Cl)nc3n(CCC)cnn3c2=NC(C)C(F)(F)F)c(F)c1 (stereo not drawn) [Example 9]
3 (30-44): GDM disease control rating (Plasmopara viticola; 50 ppm spray) | GDM disease control rating (Plasmopara viticola; 200 ppm spray) | RB disease control rating ([1]; 50 ppm spray)
5 (60-74): GDM disease control rating (Plasmopara viticola; 12.5 ppm spray)
9 (100): TEB disease control rating (Alternara solani; 200 ppm spray)
0: PYTHU inhibition of mycelial growth rating (Pythium ultimum; 1 ppm) | PYTHU inhibition of mycelial growth rating (Pythium ultimum; 10 ppm) | PYTHU inhibition of mycelial growth rating (Pythium ultimum; 25 ppm)
7 (90-95): WPM disease control rating (Blumeria graminis; 200 ppm spray)
5: PSDCH inhibition of mycelial growth rating ([2]; 25 ppm)
0 (0): AS disease control rating (Venturia inaequalis; 12.5 ppm spray) | RB disease control rating ([1]; 12.5 ppm spray)
2 (15-29): PB disease control rating (Botrytis cinera; 12.5 ppm spray) | PB disease control rating (Botrytis cinera; 200 ppm spray) | WPM disease control rating (Blumeria graminis; 12.5 ppm spray)
3: PSDCH inhibition of mycelial growth rating ([2]; 1 ppm) | PSDCH inhibition of mycelial growth rating ([2]; 10 ppm)
7: RHIZSO inhibition of mycelial growth rating (Rhizoctonia solani; 1 ppm) | RHIZSO inhibition of mycelial growth rating (Rhizoctonia solani; 10 ppm) | RHIZSO inhibition of mycelial growth rating (Rhizoctonia solani; 25 ppm)
1 (1-14): PB disease control rating (Botrytis cinera; 50 ppm spray)
4 (45-59): RB disease control rating ([1]; 200 ppm spray)
6 (75-89): AS disease control rating (Venturia inaequalis; 50 ppm spray) | AS disease control rating (Venturia inaequalis; 200 ppm spray) | TEB disease control rating (Alternara solani; 12.5 ppm spray) | WPM disease control rating (Blumeria graminis; 50 ppm spray)
8 (96-99): SBC disease control rating (Cercospora beticola; 12.5 ppm spray) | SBC disease control rating (Cercospora beticola; 50 ppm spray) | SBC disease control rating (Cercospora beticola; 200 ppm spray) | TEB disease control rating (Alternara solani; 50 ppm spray)

CCCn1cnn2c(=NC(C)C(F)(F)F)c(-c3c(F)cc(OC)cc3F)c(Cl)nc12 (stereo not drawn) [Example 12]
0 (0): AS disease control rating (Venturia inaequalis; 12.5 ppm spray) | AS disease control rating (Venturia inaequalis; 50 ppm spray) | AS disease control rating (Venturia inaequalis; 200 ppm spray) | GDM disease control rating (Plasmopara viticola; 12.5 ppm spray) | GDM disease control rating (Plasmopara viticola; 50 ppm spray) | GDM disease control rating (Plasmopara viticola; 200 ppm spray) | PB disease control rating (Botrytis cinera; 12.5 ppm spray) | PB disease control rating (Botrytis cinera; 50 ppm spray) | PB disease control rating (Botrytis cinera; 200 ppm spray) | RB disease control rating ([1]; 12.5 ppm spray) | RB disease control rating ([1]; 50 ppm spray) | RB disease control rating ([1]; 200 ppm spray) | SBC disease control rating (Cercospora beticola; 12.5 ppm spray) | SBC disease control rating (Cercospora beticola; 50 ppm spray) | SBC disease control rating (Cercospora beticola; 200 ppm spray) | TEB disease control rating (Alternara solani; 12.5 ppm spray) | TEB disease control rating (Alternara solani; 50 ppm spray) | TEB disease control rating (Alternara solani; 200 ppm spray) | WPM disease control rating (Blumeria graminis; 12.5 ppm spray) | WPM disease control rating (Blumeria graminis; 50 ppm spray) | WPM disease control rating (Blumeria graminis; 200 ppm spray)

Cn1c(Cl)c(-c2c(F)cc(F)cc2F)c(=NCC(F)(F)F)n2ncnc12 [Example 17]
1: PSDCH inhibition of mycelial growth rating ([2]; 10 ppm)
0: PSDCH inhibition of mycelial growth rating ([2]; 1 ppm) | PYTHU inhibition of mycelial growth rating (Pythium ultimum; 1 ppm)
3: PSDCH inhibition of mycelial growth rating ([2]; 25 ppm)
7: PYTHU inhibition of mycelial growth rating (Pythium ultimum; 25 ppm) | RHIZSO inhibition of mycelial growth rating (Rhizoctonia solani; 1 ppm) | RHIZSO inhibition of mycelial growth rating (Rhizoctonia solani; 10 ppm) | RHIZSO inhibition of mycelial growth rating (Rhizoctonia solani; 25 ppm)
2 (15-29): AS disease control rating (Venturia inaequalis; 50 ppm spray) | WPM disease control rating (Blumeria graminis; 50 ppm spray)
5 (60-74): GDM disease control rating (Plasmopara viticola; 200 ppm spray)
6 (75-89): AS disease control rating (Venturia inaequalis; 200 ppm spray) | WPM disease control rating (Blumeria graminis; 200 ppm spray)
4 (45-59): RB disease control rating ([1]; 200 ppm spray)
3 (30-44): RB disease control rating ([1]; 50 ppm spray)
0 (0): AS disease control rating (Venturia inaequalis; 12.5 ppm spray) | GDM disease control rating (Plasmopara viticola; 12.5 ppm spray) | GDM disease control rating (Plasmopara viticola; 50 ppm spray) | PB disease control rating (Botrytis cinera; 12.5 ppm spray) | PB disease control rating (Botrytis cinera; 50 ppm spray) | PB disease control rating (Botrytis cinera; 200 ppm spray) | RB disease control rating ([1]; 12.5 ppm spray) | TEB disease control rating (Alternara solani; 12.5 ppm spray) | TEB disease control rating (Alternara solani; 50 ppm spray) | TEB disease control rating (Alternara solani; 200 ppm spray) | WPM disease control rating (Blumeria graminis; 12.5 ppm spray)
5: PYTHU inhibition of mycelial growth rating (Pythium ultimum; 10 ppm)
